Test results reported in patent US20060110385A1, “Means and methods for diagnosing and treating affective disorders” (Affectis Pharmaceuticals AG, priority 2003, published 2006).

What was measured:
P2X7R [1] = molecular target: T1, P2X7R (Rattus norvegicus, UniProt Q64663); settings: concentrations of 10 to 300 μM; cited from earlier work
T1 sequence (Q64663 1-595): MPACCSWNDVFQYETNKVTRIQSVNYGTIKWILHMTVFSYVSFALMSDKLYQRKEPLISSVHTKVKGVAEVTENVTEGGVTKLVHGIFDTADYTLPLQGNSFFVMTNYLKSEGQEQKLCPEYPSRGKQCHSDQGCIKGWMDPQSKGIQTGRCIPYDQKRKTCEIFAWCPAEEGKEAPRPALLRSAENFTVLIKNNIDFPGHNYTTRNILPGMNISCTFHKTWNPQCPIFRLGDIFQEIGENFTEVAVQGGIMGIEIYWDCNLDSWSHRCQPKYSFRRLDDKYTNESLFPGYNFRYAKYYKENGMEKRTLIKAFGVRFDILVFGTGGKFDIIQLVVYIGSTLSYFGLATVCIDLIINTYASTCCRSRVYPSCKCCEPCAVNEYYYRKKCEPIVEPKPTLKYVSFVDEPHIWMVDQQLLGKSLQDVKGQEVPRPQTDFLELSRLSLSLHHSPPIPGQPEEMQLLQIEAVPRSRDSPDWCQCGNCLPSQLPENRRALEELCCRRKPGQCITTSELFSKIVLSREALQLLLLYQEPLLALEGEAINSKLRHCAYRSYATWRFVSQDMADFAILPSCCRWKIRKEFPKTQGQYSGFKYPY

P2X7R [2] = molecular target: T2, P2X7R (Homo sapiens, UniProt Q99572); settings: dose response curve, Y-axis ion current; cited from earlier work
T2 sequence (Q99572 1-595): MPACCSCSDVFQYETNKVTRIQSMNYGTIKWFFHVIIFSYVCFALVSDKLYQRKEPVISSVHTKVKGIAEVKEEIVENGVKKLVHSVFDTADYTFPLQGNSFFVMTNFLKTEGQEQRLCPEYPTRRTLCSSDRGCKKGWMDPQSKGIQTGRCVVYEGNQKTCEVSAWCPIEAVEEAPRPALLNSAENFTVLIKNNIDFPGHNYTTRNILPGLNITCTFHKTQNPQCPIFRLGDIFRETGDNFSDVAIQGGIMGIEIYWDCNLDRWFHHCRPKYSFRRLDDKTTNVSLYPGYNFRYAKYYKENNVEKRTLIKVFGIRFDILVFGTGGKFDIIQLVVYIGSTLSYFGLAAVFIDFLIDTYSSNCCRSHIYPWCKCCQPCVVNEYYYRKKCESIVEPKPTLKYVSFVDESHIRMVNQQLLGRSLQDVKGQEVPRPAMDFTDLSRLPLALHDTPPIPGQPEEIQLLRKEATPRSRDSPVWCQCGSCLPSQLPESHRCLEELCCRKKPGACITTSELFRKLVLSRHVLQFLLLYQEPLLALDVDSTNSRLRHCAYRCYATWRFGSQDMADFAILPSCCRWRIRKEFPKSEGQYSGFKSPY

P2X7R [3] = settings: cited from earlier work
DBA/201a mice = test: Porsolt's forced swim test after intrahippocampal P2X7R antagonists; assay type: in vivo, mouse; settings: 100 nM KN-62 or 10 μM oATP, 1 μl each side, dentate gyrus, 24 hours after injection
Excerpt: In the present example, the P2X7R antagonists were directly injected into the dentate gyrus region of the hippocampus. Briefly, three months old male mice were bilaterally implanted with guide cannulae (23 gauge, length 8 mm) by means of a stereotactic instrument (David Kopf Instruments). The coordinates, in relation to bregma, were −1.5 mm posterior, ±1.0 mm lateral, and −0.8 mm ventral. Mice were allowed to recover for 10 to 13 days after surgery. Following this recovery period, mice were injected with 1 μl vehicle solution (0.01% DMSO, Sigma), or 100 nM KN-62 (Sigma, prepared in 0.01% DMSO), or 10 μM oATP (Sigma, prepared in PBS) in each side of the brain over a period of 60 seconds. All injections were performed using a 9 mm-31 gauge needle inserted into the guide cannulae and connected via tubing to a 10 μl Hamilton syringe.
The behaviour of individual mice was assessed using the Porsolt's forced swim test 24 hours after injection of vehicle solution, KN-62, or oATP. A pre-exposure of 5 minutes to the test was performed 15-17 minutes after administration of vehicle, KN-62, or oATP. A description of the Porsolt's forced swim test is given in example 9. […] Observed results were verified statistically using one-way MANOVA test.

mice [4] = test: Porsolt's forced swim test after long-term paroxetine; assay type: in vivo, mouse; settings: paroxetine 10 mg/kg twice per day by gavage, 28 days, male mice
Description: Further validation of role of P2X7R in affective disorders was performed by examining its expression pattern in response to stress and treatment with antidepressant drugs. […] In parallel, a control group of mice was given vehicle solution (i.e. without paroxetine) using the same treatment regiment while a second control group of mice was left undisturbed and stress-free (i.e. untreated) during the same period of the experiments. At the end of the long-term treatment, part of the mice of each experimental group were tested in the dark/light box (test of anxiety behaviour) and in the Porsolt's forced swim test (test of depressive-like behaviour) to confirm the effectiveness of the treatment (FIG. 5). […] The other part of the experimental groups (i.e. mice without test experience) were decapitated, brains rapidly removed and frozen at −80° C. until usage.

P2X7R [5] = molecular target: T2, P2X7R; test: Calcium entry (Fluo-4 AM) in HT-22 cells overexpressing human P2X7R; assay type: cell-based; parameters: expressed in transfected cells; settings: 20 μM BzATP or 50 μM tenidap
Excerpt: Yet another method for identifying P2X7R agonists was devised by generating a immortalised mouse cell line that overexpresses the human P2X7R gene under the control of the human cytomegalovirus (CMV) early promoter/enhancer region. The human P2X7R cDNA was inserted into the pcDNA3.1 vector (Invitrogen) and transfected into the mouse hippocampal cell line HT-22 using Lipofectamine (Invitrogen) according to the manufacturer's specifications. One day after transfection, culture medium containing 500 μg/ml G418 was added to the cells. Resistant clones were separately isolated and cultured 14 days after applying the selection medium.
The agonistic activity of a compound was evaluated by measuring calcium entry in the cells that overexpress the human P2X7R. Cells were cultured in 96 well plates and incubated at 37° C. with 5% CO2 DMEM with 10% foetal calf serum (Gibco) until they reached confluence. Cells were then loaded for one hour with 10 μM of Fluo-4 AM (Molecular Probes). Fluo-4 AM is a fluorescent dye that binds to intracellular calcium. […] Agonist activity was detected by measuring an increase in calcium influx which results in increased binding to Fluo-4 AM and increased fluorescence. Changes in fluorescence signal are measured using a Fluostar Optima plate reader (BMG biotech). […] Thus, both compound stimulated the activity of P2X7R which results in an influx of ions into the cells.

P2X7R [6] = test: P2X7R protein expression by immunohistochemistry after siRNA injection; assay type: in vivo, mouse
Excerpt: At the end of the experiment, the mice were sacrificed and the brains were examined to confirm the location and efficiency of the siRNA injections. For this purpose the brains were cut into sections and the slides were stained by immunohistochemistry using the above mentioned protocols. Brains from mice injected with the specific double stranded siRNA, with control double stranded RNA and with vehicle were examined in parallel. Under these conditions, the specific siRNA directed against P2X7R injected near the dentate gyrus induced on average an 80% inhibition of P2X7R protein expression as compared to the samples from mice injected with vehicle or with control double stranded RNA. […] This inhibition produced behavioural changes indicating a causative role for P2X7R in affective disorders.

mice [7] = test: Porsolt's forced swim test after intrahippocampal siRNA; assay type: in vivo, mouse; settings: 0.1 nmol/μl, 1 μl per side, dentate gyrus, 24 hours and 48 hours after infusion
Excerpt: According to the observed expression pattern of P2X7R in the hippocampus (FIGS. 9, 10, and 11) and the known involvement of the hippocampus in depression, the dentate gyrus (hippocampus) was selected as target region for siRNA application. Male, naive mice were bilaterally implanted with a guide cannulae (23 gauge, length 8 mm) by means of a stereotactic instrument. The coordinates, in relation to bregma, were −2.0 mm posterior, ±1.0 mm lateral, and −1.0 mm ventral. Following a recovery period of 5 days, the mice were divided into three experimental groups: vehicle (veh), control double stranded RNA (control), and P2X7R specific double stranded siRNA (siRNA). Sequences used for P2X7R siRNA are 5′-[…]-3′ and 5′-[…]-3′. Both sequences and were annealed and injected together as a double stranded RNA. On day 6 after surgery, mice were slightly anaesthetized with Isofluran and injections of siRNA were carried out. […]
The effects of P2X7R inhibition on depressive-like behaviour was assessed 24 hours and 48 hours after infusion of siRNA, control or vehicle according to the standard test paradigm, the Porsolt's forced swim test (Porsolt et al., Arch. Int. Pharmacodym. 229 (1977), 327-336; Porsolt, Rev. Neurosci. 11 (2000), 53-58). […] Compared to vehicle application, no influence of control double stranded RNA (5′-[…]-3′) on floating behaviour (passive stress coping) was detected. […]

Compound: CC(C)NCC(O)COc1cccc2ccccc12 (racemic) [DL-propanolol]
- opening of the cation channel activity of P2X7R (P2X7R [1]): without affecting the opening of the cation channel activity of P2X7R
- pore-forming activity of P2X7R (P2X7R [1]): inhibit the pore-forming activity of P2X7R

Compound: Nc1ncnc2c1ncn2[C@@H]1O[C@H](COP(=O)(O)OP(=O)(O)OP(=O)(O)O)[C@@H](O)[C@H]1O [ATP]
- EC50 (P2X7R [2]): 300 µM
- levels of ATP required to achieve activation (P2X7R [3]): > 1 mM

Compound: CC(C)NC[C@@H](O)COc1cccc2ccccc12 [D-propanolol]
- opening of the cation channel activity of P2X7R (P2X7R [1]): without affecting the opening of the cation channel activity of P2X7R
- pore-forming activity of P2X7R (P2X7R [1]): inhibit the pore-forming activity of P2X7R

Compound: CN([C@@H](Cc1ccc(OS(=O)(=O)c2cccc3cnccc23)cc1)C(=O)N1CCN(c2ccccc2)CC1)S(=O)(=O)c1cccc2cnccc12 [KN-62, 1-(N,O-bis[5-isoquinolinesulphonyl]-N-methyl-L-tyrosyl)-4-phenylpiperazine]
- active escape attempts (time, frequency, latency of struggling) (DBA/201a mice): no changes
- passive behaviour (time, frequency, latency of floating) (DBA/201a mice): no changes

Compound: CC(CCc1ccccc1)NCC(O)c1ccc(O)c(C(N)=O)c1 (stereo not shown) [labetolol]
- opening of the cation channel activity of P2X7R (P2X7R [1]): without affecting the opening of the cation channel activity of P2X7R
- pore-forming activity of P2X7R (P2X7R [1]): inhibit the pore-forming activity of P2X7R

Compound: Fc1ccc([C@@H]2CCNC[C@H]2COc2ccc3c(c2)OCO3)cc1 [paroxetine]
- passive stress coping behaviour (floating) in the forced swim test (mice [4]): decreased

Compound: NC(=O)N1C(=O)/C(=C(\O)c2cccs2)c2cc(Cl)ccc21 [tenidap, 5-chloro-2,3-dihydro-2-oxo-3-(2-thienylcarbonyl)-indole-1-carboxamide]
- fluorescence intensity (calcium influx, Fluo-4 AM) (P2X7R [5]): rapid increase in fluorescence intensity

Compound: P2X7R specific siRNA: double stranded siRNA, 5′-GUGGGUCUUGCACAUGAUCTT-3′ annealed with 5′-GAUCAUGUGCAAGACCCACTT-3′ (chemistry not given here)
- inhibition of P2X7R protein expression (P2X7R [6]; injected near the dentate gyrus, compared to vehicle or control double stranded RNA): 80%
- local inflammation or infiltration at the hippocampus (P2X7R [6]; intrahippocampal injection): did not produce any sign of local inflammation or infiltration
- passive (floating) behaviour in the forced swim test (mice [7]): significant increase in passive behaviour
- passive (floating) behaviour in the forced swim test (mice [7]; listed as siRNA targeting P2X7R): increased
